Where two headings read alike, the source gives them in different places.
How the values were obtained:
SARS-CoV-2 [1] = experiment: Cell survival following SARS-CoV-2 challenge; format: cell-based
Helicase (NSP13) = conditions: cited from earlier work
SARS-CoV-2 [2] = conditions: cited from earlier work
[3] = tested on: wild-type (alpha strain, SARS-CoV-2, USA-WA1/2020) SARS-CoV-2; experiment: Inhibition of SARS-CoV-2 mediated cell death, wild type (dose response); format: cell-based
[4] = read-out: Tox CC50, cited from earlier work
SARS-CoV-2 [5] = tested on: SARS-CoV-2; design: method as in Ref11; conditions: in vivo (Sirian hamster); ref Ref11; cited from earlier work
[6] = Severe acute respiratory syndrome coronavirus 2, Vero, read-out: IC50, dose response anti-viral testing (Figure 4), alpha strain USA-WA1/2020, legend names Vero cells
[7] = wild-type (alpha strain, USA-WA1/2020), read-out: IC50 Values For inhibition of SARS-CoV-2 Mediated Cell Death, Wild Type
[8] = Severe acute respiratory syndrome coronavirus 2, wild-type (alpha strain, USA-WA1/2020), read-out: IC50 Values For inhibition of SARS-CoV-2 Mediated Cell Death, Wild Type

In the case of `O=C(N[C@@H](Cc1ccc(O)cc1)C(=O)NC1CCC1=O)OCc1ccccc1` (stereo partly drawn) [Compound 7, Benzyl ((2S)-3-(4-hydroxyphenyl)-1-oxo-1-((2-oxocyclobutyl)amino)propan-2-yl) carbamate], the “Cell Survival following SARS-CoV-2 Challenge” value (SARS-CoV-2 [1]; 5 µM inhibitor concentration) is reported as -2 and the “Cell Survival following SARS-CoV-2 Challenge” value (SARS-CoV-2 [1]; 50 µM inhibitor concentration) is reported as 28.1.
In the case of `CC(C)c1cc2c(c(O)c1O)[C@@]13CCCC(C)(C)[C@@H]1[C@H](OC3=O)[C@H]2O` [Rosmanol], the IC50 (Helicase (NSP13); Enzyme assay, ref Ref5) is given as 8.93 µM.
For `COc1ccc2cc1Oc1ccc(cc1)C[C@H]1c3c(cc4c(c3Oc3cc5c(cc3OC)CCN(C)[C@@H]5C2)OCO4)CCN1C` [cepharanthine], the IC50 (SARS-CoV-2 [2]; read-out: IC50, anti-SARS-CoV-2 activity) is given as 400 µM.
In the case of `O=C([O-])c1cc(=O)[nH]c(=O)[nH]1.O=C([O-])c1cc(=O)[nH]c(=O)[nH]1.[Zn+2]` [Zinc Orotate], the IC50 (Helicase (NSP13); Enzyme assay, ref Ref5) is listed as 4.12 µM.
For `O=C(N[C@@H](Cc1ccccc1)C(=O)NC1CCC1=O)OCc1ccccc1` (stereo partly drawn) [Compound 9, Benzyl ((2S)-1-oxo-1-((2-oxocyclobutyl)amino)-3-phenylpropan-2-yl) carbamate], the IC50 [3, 6] was 8.53 ± 5.15 µM, the “Cell Survival following SARS-CoV-2 Challenge” value (SARS-CoV-2 [1]; 5 µM inhibitor concentration) was 41.6 and the “Cell Survival following SARS-CoV-2 Challenge” value (SARS-CoV-2 [1]; 50 µM inhibitor concentration) was 57.5.
For `Cc1ccc(S(=O)(=O)N[C@@H](Cc2ccccc2)C(=O)NCC2(O)CC2)cc1` [Compound 5, (S)-N-((1-hydroxycyclopropyl)methyl)-2-((4-methylphenyl)sulfonamido)-3-phenylpropanamide], the “Cell Survival following SARS-CoV-2 Challenge” value (SARS-CoV-2 [1]; 5 µM inhibitor concentration) was 30.0 and the “Cell Survival following SARS-CoV-2 Challenge” value (SARS-CoV-2 [1]; 50 µM inhibitor concentration) was 30.7.
For `COc1cc(C(=O)NS(=O)(=O)c2ccccc2C)ccc1Cc1cn(C)c2ccc(NC(=O)OC3CCCC3)cc12` [Zafirlukast], the IC50 (Helicase (NSP13); Enzyme assay, ref Ref7) is given as 16.3 µM.
In the case of “(2R)-2-((4-Methoxyphenyl) sulfonamido)-3-methyl-N-(2-oxocyclobutyl) butanamide [Compound 8]”, the IC50 [3, 7] is reported as 13.7 µM, the “Cell Survival following SARS-CoV-2 Challenge” value (SARS-CoV-2 [1]; 5 µM inhibitor concentration) is reported as 32.0 and the “Cell Survival following SARS-CoV-2 Challenge” value (SARS-CoV-2 [1]; 50 µM inhibitor concentration) is reported as 49.1.
For `O=C(N/N=C/c1cc(O)c(O)cc1O)c1cc2ccccc2cc1O` [Dyngo-4a], the IC50 (Helicase (NSP13); Enzyme assay, ref Ref5) is given as 0.63 µM.
For `CCN(CC)C(=S)SSC(=S)N(CC)CC` [Disulfiram], the IC50 (SARS-CoV-2 [2]; in vitro assay, ref Ref10, read-out: Antiviral activity IC50) is listed as 3.18 µM and the IC50 (Helicase (NSP13); Enzyme and in vitro assay, ref Ref10) is listed as 0.41 µM.
For `Oc1cc(O)c2c(c1)O[C@H](c1cc(O)c(O)c(O)c1)[C@H](O)[C@H]2c1c(O)cc(O)c2c1O[C@H](c1cc(O)c(O)c(O)c1)[C@H](O)[C@H]2c1c(O)cc(O)c2c1O[C@H](c1cc(O)c(O)c(O)c1)[C@H](O)C2` [Katacine], the IC50 (Helicase (NSP13); Enzyme assay, ref Ref5) is listed as 5.98 µM.
In the case of `C=C[C@@H]1C[C@]1(NC(=O)[C@@H]1C[C@@H]2CN1C(=O)[C@H](C(C)(C)C)NC(=O)O[C@@H]1C[C@H]1CCCCCc1nc3ccc(OC)cc3nc1O2)C(=O)NS(=O)(=O)C1CC1` [Grazoprevir], the IC50 (SARS-CoV-2 [2]; in vitro assay, ref Ref6, read-out: Antiviral activity IC50) is listed as 1.41 µM.
In the case of `CNC(=C[N+](=O)[O-])NCCSCc1ccc(CN(C)C)o1.O=C([O-])CC(O)(CC(=O)[O-])C(=O)[O-].[Bi+3]` [Ranitidine bismuth citrate], the CC50 ([4]; ref Ref11) is listed as 3250 µM, the “viral load redn in Animal lungs & nasal turbinate” value (SARS-CoV-2 [5]) is listed as 1 to 1.5 log and the IC50 (Helicase (NSP13); In vitro & in vivo, ref Ref11, read-out: Enzyme Assay IC50) is listed as 0.69 µM.
In the case of `Cc1ccc(S(=O)(=O)N[C@@H](Cc2c[nH]c3ccccc23)C(=O)NC2CCC2=O)cc1` (stereo partly drawn) [Compound 4, (2S)-3-(1H-Indol-3-yl)-2-((4-methylphenyl)sulfonamido)-N-(2-oxocyclobutyl)propanamide], the “toxicity / growth inhibition of Vero cell line” value (“toxicity / growth inhibition” for short) (Vero cell line) is reported as “least toxic against the Vero cell line”, the IC50 [3, 6] is reported as 13.2 ± 2.35 µM and the IC50 ([3]; Severe acute respiratory syndrome coronavirus 2, read-out: IC50 Values For inhibition of SARS-CoV-2 Mediated Cell Death, Wild Type, wild-type (alpha strain, USA-WA1/2020)) is reported as 6.7 µM. For the same molecule, the IC50 [3, 7] was 13 µM, the “Cell Survival following SARS-CoV-2 Challenge” value (SARS-CoV-2 [1]; 5 µM inhibitor concentration) was 54.3 and the “Cell Survival following SARS-CoV-2 Challenge” value (SARS-CoV-2 [1]; 50 µM inhibitor concentration) was 70.9.
In the case of `O=C1O[C@H]2[C@@H]3OC(=O)c4cc(O)c(O)c(O)c4-c4c(O)c(O)c5oc(=O)c6c(c(O)c(O)c7oc(=O)c4c5c76)-c4c(cc(O)c(O)c4O)C(=O)OC[C@H]3OC(O)[C@@H]2OC(=O)c2cc(O)c(O)c(O)c2-c2c1cc(O)c(O)c2O` (mixture of isomers) [Punicalagin], the IC50 (SARS-CoV-2 [2]; in vitro assay, ref Ref5, read-out: Antiviral activity IC50) is listed as 0.347 µM, the CC50 ([4]; ref Ref5) is listed as 33.9 µM and the IC50 (Helicase (NSP13); Enzyme assay, ref Ref5) is listed as 0.43 µM.
For FPA124, the IC50 (SARS-CoV-2 [2]; ref Ref9, read-out: Antiviral activity IC50) is given as 14 µM and the IC50 (Helicase (NSP13); Enzyme assay, ref Ref9) is given as 8.5 µM.
For Tannic acid, the IC50 (Helicase (NSP13); Enzyme assay, ref Ref5) is listed as 1.25 µM.
In the case of `CC(C)[C@H](NC(=O)CCCCCN1C(=O)C=CC1=O)C(=O)N[C@@H](CCCNC(N)=O)C(=O)Nc1ccc(COC(=O)Oc2ccc([N+](=O)[O-])cc2)cc1` [MC-Val-Cit-PABC-PNP], the IC50 (Helicase (NSP13); Enzyme assay, ref Ref5) is listed as 2.45 µM.
In the case of `CC(C)[C@H](NC(=O)OCc1ccccc1)C(=O)NC1CCC1=O` (stereo partly drawn) [Compound 3, Benzyl ((2S)-3-methyl-1-oxo-1-((2-oxocyclobutyl)amino)butan-2-yl) carbamate], the IC50 [3, 6] is reported as 15.1 ± 8.22 µM, the IC50 [3, 8] is reported as 13.1 µM and the “Cell Survival following SARS-CoV-2 Challenge” value (SARS-CoV-2 [1]; 5 µM inhibitor concentration) is reported as 37.9. For the same molecule, the “Cell Survival following SARS-CoV-2 Challenge” value (SARS-CoV-2 [1]; 50 µM inhibitor concentration) was 54.9.
For `C=CCn1c(CSc2ccccc2[N+](=O)[O-])n[nH]c1=S` [SSYA10-001], the CC50 ([4]; In vitro, ref Ref4) is given as 80.5 µM.
With `O=C(N[C@H](Cc1ccccc1)C(=O)NC1CCC1=O)OCc1ccccc1` (stereo partly drawn) [Compound 2, Benzyl ((2R)-1-oxo-1-((2-oxocyclobutyl)amino)-3-phenylpropan-2-yl) carbamate] the “toxicity / growth inhibition” value (Vero cell line) was “some inhibitory effect on Vero cell line growth”, the IC50 [3, 6] was 20.3 ± 14.4 µM and the IC50 [3, 8] was 6.89 µM. For the same molecule, the “Cell Survival following SARS-CoV-2 Challenge” value (SARS-CoV-2 [1]; 5 µM inhibitor concentration) was 24.2, the “Cell Survival following SARS-CoV-2 Challenge” value (SARS-CoV-2 [1]; 50 µM inhibitor concentration) was 34.7 and the cell survival (SARS-CoV-2 [1]; at 5 µM) was 24.2%.
For `Cc1ccc(S(=O)(=O)N[C@H](Cc2ccccc2)C(=O)NC2CCC2=O)cc1` (stereo partly drawn) [Compound 6, (2R)-2-((4-Methylphenyl)sulfonamido)-N-(2-oxocyclobutyl)-3-phenylpropanamide], the “Cell Survival following SARS-CoV-2 Challenge” value (SARS-CoV-2 [1]; 5 µM inhibitor concentration) was 26.6 and the “Cell Survival following SARS-CoV-2 Challenge” value (SARS-CoV-2 [1]; 50 µM inhibitor concentration) was 35.9.
For `O=C(O)CSc1cc(NS(=O)(=O)c2ccc(Br)cc2)c2ccccc2c1O` [UMI-77], the IC50 (Helicase (NSP13); Enzyme assay, ref Ref5) is listed as 4.38 µM.
In the case of `Cc1ccc(S(=O)(=O)N[C@@H](Cc2ccccc2)C(=O)NCC(C)(C)O)cc1` [Compound 10, (S)-N-(2-hydroxy-2-methylpropyl)-2-((4-methylphenyl)sulfonamido)-3-phenylpropanamide], the “toxicity / growth inhibition” value (Vero cell line) is reported as “some inhibitory effect on Vero cell line growth”, the IC50 [3, 6] is reported as 6.95 ± 1.95 µM and the IC50 [3, 8] is reported as 6.68 µM. For the same molecule, the “Cell Survival following SARS-CoV-2 Challenge” value (SARS-CoV-2 [1]; 5 µM inhibitor concentration) was 36.7 and the “Cell Survival following SARS-CoV-2 Challenge” value (SARS-CoV-2 [1]; 50 µM inhibitor concentration) was 59.2.
With `Cc1ccc(S(=O)(=O)N[C@@H](Cc2ccccc2)C(=O)NC2CCC2=O)cc1` (stereo partly drawn) [Compound 1, (2S)-2-((4-Methylphenyl)sulfonamido)-N-(2-oxocyclobutyl)-3-phenylpropanamide] the IC50 [3, 8] was 15.4 µM, the “Cell Survival following SARS-CoV-2 Challenge” value (SARS-CoV-2 [1]; 5 µM inhibitor concentration) was 39.3 and the “Cell Survival following SARS-CoV-2 Challenge” value (SARS-CoV-2 [1]; 50 µM inhibitor concentration) was 49.8.
For `CC(C)=CCc1c(O)cc(O)c2c(=O)cc(-c3ccc(O)cc3)oc12` [licoflavone C], the IC50 (Helicase (NSP13); Enzyme assay, ref Ref8) is listed as 1.34 µM.

— PMC10049026, “In Silico Binding of 2-Aminocyclobutanones to SARS-CoV-2 Nsp13 Helicase and Demonstration of Antiviral Activity” (International Journal of Molecular Sciences, 2023)
